Series [1] addresses farnesyl protein transferase (FPTase) (Homo sapiens, UniProt P49354+P49356). In words: In vitro assay for inhibition of farnesyl protein transferase. In kind it is biochemical. The following applies: essentially as described in WO 98/40383, pages 33-34, read-out: IC50 FPTase inhibitory activity. How it is done: In Vitro Assay for Inhibition of Farnesyl Protein Transferase
An in vitro assay for inhibition of farnesyl protein transferase was performed essentially as described in WO 98/40383, pages 33-34.

SMILES strings stand for the structures.

The term IC50 denotes the concentration needed to halve the response being measured. With `Cn1cncc1C(N)(c1ccc(Cl)cc1)c1ccc2c(c1)c(-c1cccc(Cl)c1)nc1nnnn12` (racemic) [parent enantiomeric mixture, (±)-5-(3-chlorophenyl)-α-(4-chlorophenyl)-α-(1-methyl-1H-imidazol-5-yl)tetrazolo[1,5-a]quinazoline-7-methanamine, reference compound], the half-inhibitory concentration (IC50) in series [1] turned out to be 1.1 nM.
As a reminder, the melting point is the temperature of the solid-liquid transition. For `Cn1cncc1C(N)(c1ccc(Cl)cc1)c1ccc2c(c1)c(-c1cccc(Cl)c1)nc1nnnn12` (single isomer, unassigned; (-)) [(−) enantiomer, (−)-5-(3-chlorophenyl)-α-(4-chlorophenyl)-α-(1-methyl-1H-imidazol-5-yl)tetrazolo[1,5-a]quinazoline-7-methanamine], the melting point was in the range of 178 to 180 °C. Besides, the IC50 in series [1] is 0.7 nM.

(Values after US8318753B2, “Farnesyl transferase inhibiting 1,2-annelated quinoline enantiomer” (Janssen Pharmaceutica NV, priority 2000, dated 2012).)
